{"source": "PubChem BioAssay AID330", "about": "(DTP/NCI, 2004)", "test_system": "P388 leukemia ip, CD2F1 mice, survival T/C", "assay": "NCI In Vivo Anticancer Drug Screen. Data for tumor model P388 Leukemia (intraperitoneal) in CD2F1 (CDF1) mice", "conditions": "endpoint: median survival time, higher = longer survival", "procedure,_shortened": "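Mice carrying the transplanted tumor received test compound or vehicle. Survival was recorded in each group, and the value is the treated-group measurement divided by that of the vehicle-treated control group.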", "note": "Several values for one entry are separate records, joined by “and”; a condition that tells them apart may be missing. Equal values may be shown once. Toxic doses and inconclusive results are not listed.", "data": [{"smiles": "O=C(O)CCCCc1ccc(CCCCC(=O)O)c2ccccc12", "values": [{"measurement": "T/C", "setting": "dose: 100.0 mg/kg/injection, schedule: Q04DX003 (ip), vehicle: saline with Tween-80", "result": "103 % of control"}, {"measurement": "T/C", "setting": "dose: 200.0 mg/kg/injection, schedule: Q04DX003 (ip), vehicle: saline with Tween-80", "result": "102 % of control"}, {"measurement": "T/C", "setting": "dose: 400.0 mg/kg/injection, schedule: Q04DX003 (ip), vehicle: saline with Tween-80", "result": "99 % of control"}]}, {"smiles": "Cn1nc(-c2cccc(F)c2)[n+](C)n1", "values": [{"measurement": "T/C", "setting": "dose: 50.0 mg/kg/injection, schedule: Q01DX005 (ip), vehicle: saline", "result": "102 % of control"}, {"measurement": "T/C", "setting": "dose: 100.0 mg/kg/injection, schedule: Q01DX005 (ip), vehicle: saline", "result": "98 % of control"}]}, {"smiles": "O=C(CNOCc1ccccc1)OCc1ccccc1", "values": [{"measurement": "T/C", "setting": "dose: 12.5 mg/kg/injection, schedule: Q01DX009 (ip), vehicle: other", "result": "88 % of control"}, {"measurement": "T/C", "setting": "dose: 25.0 mg/kg/injection, schedule: Q01DX009 (ip), vehicle: other", "result": "96 % of control"}, {"measurement": "T/C", "setting": "dose: 50.0 mg/kg/injection, schedule: Q01DX009 (ip), vehicle: other", "result": "99 % of control"}, {"measurement": "T/C", "setting": "dose: 100.0 mg/kg/injection, schedule: Q01DX009 (ip), vehicle: other", "result": "97 % of control"}, {"measurement": "T/C", "setting": "dose: 200.0 mg/kg/injection, schedule: Q01DX009 (ip), vehicle: other", "result": "108 % of control"}]}, {"smiles": "CCCCCCCCCCCCCCC[N+]1([O-])CCOCC1", "values": [{"measurement": "T/C", "setting": "dose: 50.0 mg/kg/injection, schedule: Q01DX009 (ip), vehicle: saline", "result": "90 % of control"}, {"measurement": "T/C", "setting": "dose: 100.0 mg/kg/injection, schedule: Q01DX009 (ip), vehicle: saline", "result": "91 % of control"}]}, {"smiles": "CC(C)(C)N=S=Nc1c(F)c(F)c(F)c(F)c1F", "values": [{"measurement": "T/C", "setting": "dose: 50.0 mg/kg/injection, schedule: Q01DX005 (ip), vehicle: saline with Tween-80", "result": "110 % of control"}, {"measurement": "T/C", "setting": "dose: 100.0 mg/kg/injection, schedule: Q01DX005 (ip), vehicle: saline with Tween-80", "result": "106 % of control"}]}, {"smiles": "COc1cc2c(c(OC)c1OC)-c1cc3c(cc1CC(CO)C(CO)C2)OCO3", "note": "(configuration not stated)", "values": [{"measurement": "T/C", "setting": "dose: 0.5 mg/kg/injection, schedule: Q04DX002 (ip), vehicle: saline with Tween-80", "result": "101 % of control"}, {"measurement": "T/C", "setting": "dose: 1.0 mg/kg/injection, schedule: Q04DX002 (ip), vehicle: saline with Tween-80", "result": "106 % of control"}, {"measurement": "T/C", "setting": "dose: 2.0 mg/kg/injection, schedule: Q04DX002 (ip), vehicle: saline with Tween-80", "result": "103 % of control"}]}, {"smiles": "COc1ccn(C2OC(COC(=O)c3ccccc3)C(OC(=O)c3ccccc3)C2OC(=O)c2ccccc2)c(=O)n1", "note": "(configuration not stated)", "values": [{"measurement": "T/C", "setting": "dose: 25.0 mg/kg/injection, schedule: Q01DX005 (ip), vehicle: Klucel (hydroxypropylcellulose) (HPC)", "result": "97 % of control"}, {"measurement": "T/C", "setting": "dose: 50.0 mg/kg/injection, schedule: Q01DX005 (ip), vehicle: Klucel (hydroxypropylcellulose) (HPC)", "result": "88 % of control and 93 % of control"}, {"measurement": "T/C", "setting": "dose: 100.0 mg/kg/injection, schedule: Q01DX005 (ip), vehicle: Klucel (hydroxypropylcellulose) (HPC)", "result": "90 % of control"}, {"measurement": "T/C", "setting": "dose: 200.0 mg/kg/injection, schedule: Q01DX005 (ip), vehicle: Klucel (hydroxypropylcellulose) (HPC)", "result": "92 % of control"}]}, {"smiles": "C/C=C/C(O)CC1CCCCN1", "note": "(configuration not stated)", "values": [{"measurement": "T/C", "setting": "dose: 100.0 mg/kg/injection, schedule: Q04DX003 (ip), vehicle: saline", "result": "100 % of control"}]}]}
